From publication PMC6061858 (2018)

Key:
[1] = test system: metY U47Isocytidine (RNA, riboswitch, isocytidine at 47 (replaces U47)) AGGCGCAUUUGAACUGUAUUGUACGCCUUGCAUAAAGCAAAAGUACUAAAAAAGG; test: ITC; settings: 100 mM KCl, 10 mM MgCl2; 40 mM HEPES pH 7.2, 298 K; 200 µM SAM titrated into 15 µM RNA
[2] = test system: bhmT A50Pur (RNA, riboswitch, purine at A50 (metY numbering; position 47 of strand)) GGGCAGUUGAACCAUAUUGUGCGCCCUGCAUUUGCUUAAGCACUAAAAAGGA; test: ITC; settings: 100 mM KCl, 10 mM MgCl2; 40 mM HEPES pH 7.2, 298 K
[3] = test system: metY 53 nt, 5-bromocytosine (crystallized) (RNA, riboswitch, 5-bromocytidine at 4) AGGCGCAUUUGAACUGUAUUGUACGCCUUGCAUAAAGCAAAAGUACUAAAAAA; test: X-ray crystallography (2.5 Å); settings: co-crystal, space group P4_122
[4] = test system: metY 55 nt (metY SAM-V riboswitch) (RNA, riboswitch) AGGCGCAUUUGAACUGUAUUGUACGCCUUGCAUAAAGCAAAAGUACUAAAAAAGG; test: ITC; settings: 100 mM KCl, 10 mM MgCl2, 40 mM HEPES pH 7.2, 298 K
[5] = test system: metY 53 nt (RNA, riboswitch) AGGCGCAUUUGAACUGUAUUGUACGCCUUGCAUAAAGCAAAAGUACUAAAAAA; test: ITC; settings: 100 mM KCl, 10 mM MgCl2; 40 mM HEPES pH 7.2, 298 K; 200 µM SAM titrated into 15 µM RNA
[6] = test system: metY A50Inosine (RNA, riboswitch, inosine at 50 (replaces A50)) AGGCGCAUUUGAACUGUAUUGUACGCCUUGCAUAAAGCAAAAGUACUAAAAAAGG; test: ITC; settings: 100 mM KCl, 10 mM MgCl2; 40 mM HEPES pH 7.2, 298 K; 200 µM SAM titrated into 15 µM RNA
[7] = test system: bhmT A50Ino (RNA, riboswitch, inosine at A50 (metY numbering; position 47 of strand)) GGGCAGUUGAACCAUAUUGUGCGCCCUGCAUUUGCUUAAGCACUAAAAAGGA; test: ITC; settings: 100 mM KCl, 10 mM MgCl2; 40 mM HEPES pH 7.2, 298 K
[8] = test system: metY A50Pur (RNA, riboswitch, purine at 50 (replaces A50)) AGGCGCAUUUGAACUGUAUUGUACGCCUUGCAUAAAGCAAAAGUACUAAAAAAGG; test: ITC; settings: 100 mM KCl, 10 mM MgCl2; 40 mM HEPES pH 7.2, 298 K
[9] = test system: bhmT U9 4-thiouridine (RNA, riboswitch, 4-thiouridine at U9 (metY numbering; position 7 of strand)) GGGCAGUUGAACCAUAUUGUGCGCCCUGCAUUUGCUUAAGCACUAAAAAGGA; test: ITC; settings: 100 mM KCl, 10 mM MgCl2; 40 mM HEPES pH 7.2, 298 K; 200 µM SAM titrated into 15 µM RNA
[10] = test system: bhmT U47Isocytidine (RNA, riboswitch, isocytidine at U47 (metY numbering; position 44 of strand)) GGGCAGUUGAACCAUAUUGUGCGCCCUGCAUUUGCUUAAGCACUAAAAAGGA; test: ITC; settings: 100 mM KCl, 10 mM MgCl2; 40 mM HEPES pH 7.2, 298 K; 200 µM SAM titrated into 15 µM RNA
[11] = test system: bhmT 49 nt (SAM-49) (RNA, riboswitch) GGGCAGUUGAACCAUAUUGUGCGCCCUGCAUUUGCUUAAGCACUAAAAA; test: ITC; settings: 100 mM KCl, 10 mM MgCl2; 40 mM HEPES pH 7.2, 298 K; 200 µM SAM titrated into 15 µM RNA
[12] = test system: bhmT 52 nt (SAM-52) (RNA, riboswitch) GGGCAGUUGAACCAUAUUGUGCGCCCUGCAUUUGCUUAAGCACUAAAAAGGA; test: ITC; settings: 100 mM KCl, 10 mM MgCl2, 40 mM HEPES pH 7.2, 298 K
[13] = test system: bhmT U20 4-thiouridine (RNA, riboswitch, 4-thiouridine at U20 (metY numbering; position 18 of strand)) GGGCAGUUGAACCAUAUUGUGCGCCCUGCAUUUGCUUAAGCACUAAAAAGGA; test: ITC; settings: 100 mM KCl, 10 mM MgCl2; 40 mM HEPES pH 7.2, 298 K; 200 µM SAM titrated into 15 µM RNA
[14] = 200-250 µM SAH titrated into 15 µM RNA

Which results are given for `C[S+](CC[C@H](N)C(=O)O)C[C@H]1O[C@@H](n2cnc3c(N)ncnc32)[C@H](O)[C@@H]1O` (stereo partly drawn)?
binding [1]: no; Kd [2]: 0.90 ± 0.10 µM; binding [3]: yes; Kd [4]: 4.37 ± 0.21 µM; binding [5]: no; binding [6]: weak; Kd [7]: 16.8 ± 2.6 µM; Kd [8]: 14.7 ± 1.8 µM; binding [9]: no; binding [10]: no; binding [11]: no; Kd [12]: 0.50 ± 0.08 µM; binding [13]: weak

What does the source list for `Nc1ncnc2c1ncn2[C@@H]1O[C@H](CSCC[C@H](N)C(=O)O)[C@@H](O)[C@H]1O`?
binding [4, 14]: no; binding [12, 14]: no
